This experiment deals with HER2 overexpressing cells (SK-BR-3, BT-474, N87). Nature of the experiment: Drug combinations with PB4188 in vitro (checkerboard, isobolograms). The format is cell-based, human. As to conditions: HER2 amplified cells, HRG. How it is done: Moreover, combination with chemotherapeutic drugs and cyclin inhibitors were tested. Combinations were tested on HER2 overexpressing cells growing in the presence of HRG in […]® (SK-BR-3 and BT-474) or in the presence of HRG stress concentrations (N87 and SK-BR-3 as described in proliferation assays). The inhibitory effect of drug combinations was tested by imaging or by measuring proliferation using Alamar Blue as described herein before. […] The extent of growth inhibition obtained with each combination was calculated. […] The inhibition values of the combination experiments were used by CHALICE™ Analyzer software to generate the isobolograms.

The values below come from patent publication US20230242669A1, “ANTIBODY THAT BINDS ERBB-2 AND ERBB-3” (Merus N.V., priority 2014, published 2023).

Each structure is given as a SMILES string.

Take `Cc1nc(NC(=O)N2CCC[C@H]2C(N)=O)sc1-c1ccnc(C(C)(C)C(F)(F)F)c1` [BYL719]: the “Drug combination with PB4188 (isobologram analysis)” value is given as “synergistic”. The result for `NC1(c2ccc(-c3nc4ccn5c(=O)[nH]nc5c4cc3-c3ccccc3)cc2)CCC1` [MK-2206] reads “synergistic”; that for `CO[C@H]1C[C@@H]2CC[C@@H](C)[C@@](O)(O2)C(=O)C(=O)N2CCCC[C@H]2C(=O)O[C@H]([C@H](C)C[C@@H]2CC[C@@H](OCCO)[C@H](OC)C2)CC(=O)[C@H](C)/C=C(\C)[C@@H](O)[C@@H](OC)C(=O)[C@H](C)C[C@H](C)/C=C/C=C/C=C/1C` [everolimus], “synergistic”. On to `CS(=O)(=O)CCNCc1ccc(-c2ccc3ncnc(Nc4ccc(OCc5cccc(F)c5)c(Cl)c4)c3c2)o1` [lapatinib], for which the “Drug combination with PB4188 (isobologram analysis)” value was “synergistic”. Regarding `CCOc1cc2ncc(C#N)c(Nc3ccc(OCc4ccccn4)c(Cl)c3)c2cc1NC(=O)/C=C/CN(C)C` [neratinib], the “Drug combination with PB4188 (isobologram analysis)” value is given as “synergistic”.

As for `CC(=O)O[C@H]1C(=O)[C@@]2(C)[C@H]([C@H](OC(=O)c3ccccc3)[C@]3(O)C[C@H](OC(=O)[C@H](O)[C@@H](NC(=O)c4ccccc4)c4ccccc4)C(C)=C1C3(C)C)[C@]1(OC(C)=O)CO[C@@H]1C[C@@H]2O` [paclitaxel], the “Drug combination with PB4188 (isobologram analysis)” value is reported as “synergistic”. With `O=C(CCCCCCC(=O)Nc1ccccc1)NO` [vorinostat], the “Drug combination with PB4188 (isobologram analysis)” value was “synergistic”.
